Read-outs that look alike come from different tables or passages of the source.
Tested on: patients with advanced solid tumors
[1] = 5 mg BID 14d-on/14d-off (N = 4)
[2] = 10 mg BID 14d-on/14d-off (N = 3)
[3] = 20 mg BID 14d-on/14d-off (N = 4)
[4] = 30 mg BID 14d-on/14d-off (N = 7)

Cc1cccc(-c2nn3c(c2-c2ccc4ncnn4c2/C=C/C(N)=O)CCC3)n1 [GFH018]
At least one TEAE [1]: 4 (100%) n (%)
At least one TRAE [1]: 4 (100%) n (%)
TEAE: ALP increased [1]: 0 n (%)
TEAE: ALT increased [1]: 0 n (%)
TEAE: AST increased [1]: 0 n (%)
TEAE: Abdominal distention [1]: 0 n (%)
TEAE: Abdominal pain [1]: 0 n (%)
TEAE: Anemia [1]: 0 n (%)
TEAE: Asthenia [1]: 0 n (%)
TEAE: Bilirubin conjugated increased [1]: 1 (25.0%) n (%)
TEAE: Blood albumin decreased [1]: 2 (50.0%) n (%)
TEAE: Blood bilirubin increased [1]: 0 n (%)
TEAE: C-reactive protein increased [1]: 2 (50.0%) n (%)
TEAE: Constipation [1]: 0 n (%)
TEAE: Decreased appetite [1]: 1 (25.0%) n (%)
TEAE: GGT increased [1]: 1 (25.0%) n (%)
TEAE: Hypoalbuminemia [1]: 0 n (%)
TEAE: LDH increased [1]: 1 (25.0%) n (%)
TEAE: Lymphocyte count decreased [1]: 4 (100%) n (%)
TEAE: Platelet count decreased [1]: 1 (25.0%) n (%)
TEAE: Proteinuria [1]: 1 (25.0%) n (%)
TEAE: Sinus tachycardia [1]: 2 (50.0%) n (%)
TEAE: Urine protein present [1]: 2 (50.0%) n (%)
TEAE: White blood cell count decreased [1]: 1 (25.0%) n (%)
TEAE: White blood cells urine positive [1]: 0 n (%)
TRAE: ALP increased [1]: 0 n (%)
TRAE: ALT increased [1]: 0 n (%)
TRAE: AST increased [1]: 0 n (%)
TRAE: Anemia [1]: 0 n (%)
TRAE: GGT increased [1]: 0 n (%)
TRAE: LDH increased [1]: 0 n (%)
TRAE: Lymphocyte count decreased [1]: 1 (25.0%) n (%)
TRAE: Protein urine present [1]: 1 (25.0%) n (%)
TRAE: Proteinuria [1]: 0 n (%)
Treatment-emergent Proteinuria (grouped PTs), G1 [1]: 1 (25.0) n (%)
Treatment-emergent Proteinuria (grouped PTs), G2 [1]: 2 (50.0) n (%)
Treatment-emergent Proteinuria (grouped PTs), G3 [1]: 0 n (%)
Treatment-emergent Proteinuria (grouped PTs: proteinuria and urine protein present), any grade [1]: 3 (75.0) n (%)
At least one TEAE [2]: 3 (100%) n (%)
At least one TRAE [2]: 3 (100%) n (%)
TEAE: ALP increased [2]: 1 (33.3%) n (%)
TEAE: ALT increased [2]: 1 (33.3%) n (%)
TEAE: AST increased [2]: 0 n (%)
TEAE: Abdominal distention [2]: 0 n (%)
TEAE: Abdominal pain [2]: 0 n (%)
TEAE: Anemia [2]: 1 (33.3%) n (%)
TEAE: Asthenia [2]: 1 (33.3%) n (%)
TEAE: Bilirubin conjugated increased [2]: 0 n (%)
TEAE: Blood albumin decreased [2]: 1 (33.3%) n (%)
TEAE: Blood bilirubin increased [2]: 0 n (%)
TEAE: C-reactive protein increased [2]: 0 n (%)
TEAE: Constipation [2]: 1 (33.3%) n (%)
TEAE: Decreased appetite [2]: 0 n (%)
TEAE: GGT increased [2]: 2 (66.7%) n (%)
TEAE: Hypoalbuminemia [2]: 0 n (%)
TEAE: LDH increased [2]: 1 (33.3%) n (%)
TEAE: Lymphocyte count decreased [2]: 0 n (%)
TEAE: Platelet count decreased [2]: 0 n (%)
TEAE: Proteinuria [2]: 0 n (%)
TEAE: Sinus tachycardia [2]: 0 n (%)
TEAE: Urine protein present [2]: 2 (66.7%) n (%)
TEAE: White blood cell count decreased [2]: 0 n (%)
TEAE: White blood cells urine positive [2]: 0 n (%)
TRAE: ALP increased [2]: 1 (33.3%) n (%)
TRAE: ALT increased [2]: 1 (33.3%) n (%)
TRAE: AST increased [2]: 0 n (%)
TRAE: Anemia [2]: 1 (33.3%) n (%)
TRAE: GGT increased [2]: 2 (66.7%) n (%)
TRAE: LDH increased [2]: 1 (33.3%) n (%)
TRAE: Lymphocyte count decreased [2]: 0 n (%)
TRAE: Protein urine present [2]: 1 (33.3%) n (%)
TRAE: Proteinuria [2]: 0 n (%)
Treatment-emergent Proteinuria (grouped PTs), G1 [2]: 0 n (%)
Treatment-emergent Proteinuria (grouped PTs), G2 [2]: 2 (66.7) n (%)
Treatment-emergent Proteinuria (grouped PTs), G3 [2]: 0 n (%)
Treatment-emergent Proteinuria (grouped PTs: proteinuria and urine protein present), any grade [2]: 2 (66.7) n (%)
At least one TEAE [3]: 4 (100%) n (%)
At least one TRAE [3]: 4 (100%) n (%)
TEAE: ALP increased [3]: 1 (25.0%) n (%)
TEAE: ALT increased [3]: 1 (25.0%) n (%)
TEAE: AST increased [3]: 0 n (%)
TEAE: Abdominal distention [3]: 1 (25.0%) n (%)
TEAE: Abdominal pain [3]: 0 n (%)
TEAE: Anemia [3]: 1 (25.0%) n (%)
TEAE: Asthenia [3]: 2 (50.0%) n (%)
TEAE: Bilirubin conjugated increased [3]: 1 (25.0%) n (%)
TEAE: Blood albumin decreased [3]: 1 (25.0%) n (%)
TEAE: Blood bilirubin increased [3]: 1 (25.0%) n (%)
TEAE: C-reactive protein increased [3]: 0 n (%)
TEAE: Constipation [3]: 0 n (%)
TEAE: Decreased appetite [3]: 0 n (%)
TEAE: GGT increased [3]: 0 n (%)
TEAE: Hypoalbuminemia [3]: 0 n (%)
TEAE: LDH increased [3]: 0 n (%)
TEAE: Lymphocyte count decreased [3]: 0 n (%)
TEAE: Platelet count decreased [3]: 0 n (%)
TEAE: Proteinuria [3]: 2 (50.0%) n (%)
TEAE: Sinus tachycardia [3]: 0 n (%)
TEAE: Urine protein present [3]: 2 (50.0%) n (%)
TEAE: White blood cell count decreased [3]: 1 (25.0%) n (%)
TEAE: White blood cells urine positive [3]: 1 (25.0%) n (%)
TRAE: ALP increased [3]: 0 n (%)
TRAE: ALT increased [3]: 0 n (%)
TRAE: AST increased [3]: 0 n (%)
TRAE: Anemia [3]: 0 n (%)
TRAE: GGT increased [3]: 0 n (%)
TRAE: LDH increased [3]: 0 n (%)
TRAE: Lymphocyte count decreased [3]: 0 n (%)
TRAE: Protein urine present [3]: 1 (25.0%) n (%)
TRAE: Proteinuria [3]: 2 (50.0%) n (%)
Treatment-emergent Proteinuria (grouped PTs), G1 [3]: 3 (75.0) n (%)
Treatment-emergent Proteinuria (grouped PTs), G2 [3]: 1 (25.0) n (%)
Treatment-emergent Proteinuria (grouped PTs), G3 [3]: 0 n (%)
Treatment-emergent Proteinuria (grouped PTs: proteinuria and urine protein present), any grade [3]: 4 (100.0) n (%)
At least one TEAE [4]: 7 (100%) n (%)
At least one TRAE [4]: 7 (100%) n (%)
TEAE: ALP increased [4]: 1 (14.3%) n (%)
TEAE: ALT increased [4]: 2 (28.6%) n (%)
TEAE: AST increased [4]: 3 (42.9%) n (%)
TEAE: Abdominal distention [4]: 2 (28.6%) n (%)
TEAE: Abdominal pain [4]: 2 (28.6%) n (%)
TEAE: Anemia [4]: 3 (42.9%) n (%)
TEAE: Asthenia [4]: 2 (28.6%) n (%)
TEAE: Bilirubin conjugated increased [4]: 2 (28.6%) n (%)
TEAE: Blood albumin decreased [4]: 0 n (%)
TEAE: Blood bilirubin increased [4]: 3 (42.9%) n (%)
TEAE: C-reactive protein increased [4]: 0 n (%)
TEAE: Constipation [4]: 4 (57.1%) n (%)
TEAE: Decreased appetite [4]: 1 (14.3%) n (%)
TEAE: GGT increased [4]: 1 (14.3%) n (%)
TEAE: Hypoalbuminemia [4]: 3 (42.9%) n (%)
TEAE: LDH increased [4]: 3 (42.9%) n (%)
TEAE: Lymphocyte count decreased [4]: 1 (14.3%) n (%)
TEAE: Platelet count decreased [4]: 1 (14.3%) n (%)
TEAE: Proteinuria [4]: 4 (57.1%) n (%)
TEAE: Sinus tachycardia [4]: 1 (14.3%) n (%)
